# Test results from patent publication US10054581B1, “Inhibitors of notch signaling pathway and use thereof in treatment of cancers” (Ecole Polytechnique Federale de Lausanne (EPFL), priority 2011, dated 2018).
# Entries after “also recorded” stand apart in the source; their conditions may differ.
# How the values were obtained:
# HPB ALL leukemic cells = assay: HPB ALL xenotransplantation in NOD/SCID γc−/− mice; format: in vivo, human; details: 25 mg/kg daily from around day 15, imaged day 27
# Procedure: FIGS. 8A-8B show 6-(4-Tert-Butylphenoxy)Pyridin-3-Amine (I3) treatment increases latency of leukemia development in mice. […] On day 15, leukemic cells were established in the bone marrow. Mice were treated with oil or 6-(4-Tert-Butylphenoxy)Pyridin-3-Amine (I3) for every day. Mice were imaged on day 27 using Caliper IVIS (Xenogen) live imaging system. Red and blue colour indicates the intensity of luciferase signal and correlates with the number of leukemic cells. […] NOD/SCID γc^−/− mice were transplanted with 5×10^5 RPMI 8402 (luciferase expressing) cells. Leukemia development was followed using Caliper IVIS (Xenogen) live imaging system. On day […], a daily treatment was started using oil (n=3) or 6-(4-Tert-Butylphenoxy)Pyridin-3-Amine (I3) (n=4). Animals were treated for 27 days (end point of the experiment).
# The human leukemic cell lines RPMI 8402 and HPB ALL were transduced with a lentivirus containing luciferase gene constitutively expressed downstream of a CMV promoter. […] Mice were monitored for tumor development using Caliper IVIS (Xenogen) live imaging system. […]
# This allowed Applicants to visualize and monitor the leukemia progression in the mice using the Caliper IVIS (Xenogen) live imaging detection system. […] Mice were monitored for leukemia development by detecting luciferase expressing leukemic cells. […]
# [1] = system: MMTV-ErbB2 mouse mammary tumors; assay: MMTV-ErbB2 mammary tumor transplantation in FVB mice; format: in vivo; details: 25 mg/kg on alternate days, established tumors; preliminary results
# Procedure: FIGS. 9A-9B show 6-(4-Tert-Butylphenoxy)Pyridin-3-Amine (I3) treatment blocks MMTV-ErbB2 mouse mammary tumors. […] Tubulin served as a loading control. […] Tumor formation was monitored on a regular basis. Once the tumor developed to a volume of 100-300 mm^3′ mice were treated with oil (n=2) or 25 mg/kg of 6-(4-Tert-Butylphenoxy)Pyridin-3-Amine (I3) (n=2). Tumor volume was measured every 6-7 days.
# Primary MMTV-ErbB2/Neu mammary tumors were harvested from the mice and a single cell suspension was prepared. 1×10^6 primary tumor cells were suspended in 50 μl of 1×PBS and kept on ice. Three weeks old recipient FVB mice were cleared of their endogenous epithelium and tumor cells were injected into the empty fat pad. Tumor development in the recipient mice was monitored and tumor volumes were measured using digital caliper. Tumor volumes were calculated using following formula: […]length×(width)^2. Once the tumor reached a volume of about 100 mm^3, recipient mice were treated with oil or 25 mg/kg of I3 on alternate days.
# In human breast cancer, high levels of Notch1 and Jagged1 proteins correlated with a poor survival of breast cancer patients. In addition, activation of Notch signalling in human breast cancer also facilitates bone and lung metastasis. […] The tumor volume was measured and recorded on regular intervals.
# HCC1187 = assay: Annexin V apoptosis, HCC1187; format: cell-based, human; details: 10 μM, 7 days
# Procedure: FIGS. 6A-6D show 6-(4-Tert-Butylphenoxy)Pyridin-3-Amine (I3) induces G0/G1 cell cycle arrest and apoptosis in human T cell acute lymphoblastic leukemia cell lines and human breast cancer cell line HCC1187. […] Percentage of Annexin V positive (apoptotic) cell population was measured using flow cytometry.
# To quantitate the percentage of apoptotic cells, AnnexinV and 7AAD staining was performed. Thymic cells were suspended in 300 μl of 1× AnnexinV binding buffer (BD Biosciences, San Diego, USA) and incubated with 10 μl of AnnexinV-Cy5 antibody and 10 μl of 7AAD (BD Biosciences, San Diego, USA). Samples were incubated for 15 minutes at room temperature. FACS was performed with in one hour of antibody staining.
# This 6-(4-Tert-Butylphenoxy)Pyridin-3-Amine (I3) mediated proliferative arrest could be due to induction of apoptosis or cell cycle arrest during different phases of cell cycle. […] Therefore to further elucidate the mechanisms responsible for 6-(4-Tert-Butylphenoxy)Pyridin-3-Amine (I3) mediated proliferative arrest cell cycle and apoptosis analyses were carried out. […] To investigate cell death, Annexin V staining was performed and proportion of apoptotic (AnnexinV positive) cell population was determined by flow cytometry analyses after 7 days of treatment.
smiles,measurement,setting,value
"CC(C)(C)c1ccc(Oc2ccc(N)cn2)cc1 [I3, 6-(4-Tert-Butylphenoxy)Pyridin-3-Amine]",leukemia progression (luciferase live imaging),HPB ALL leukemic cells,did not progress at the same rate as in the oil treated group
same,tumor volume / tumor progression,[1],caused significant tumor growth retardation; also recorded: exhibited a slow tumor progression compared to oil treated mice; also recorded: led to a block in tumor progression in the mice
same,apoptosis (Annexin V positive cells),HCC1187,induces apoptosis
